Test: Example 41: body weight and clinical observations
Format: in vivo, BALB/cCrSlcNifdc mice
Conditions: for Individual animal body weight: single mouse per group
Protocol: • a) General clinical observations: The clinical condition of mice was observed three times per week during the study, including assessment of tumor nodule ulceration, general appearance/behavior, coat condition, and food intake. • b) Body weight: Mouse body weight was recorded three times per week. • c) Tumor volume: Tumor volume was measured three times per week using vernier calipers. The longest diameter (length) and the perpendicular short diameter (width) were measured, and tumor volume was calculated as: Volume = 0.5 × length × (short diameter)^2. […] The tumor-weight inhibition rate (IRTW, %) was calculated, taking IRTW% > 60% as a reference indicator of efficacy. The calculation is as follows: IRTW(%) = (Wvehicle control−Wtreatment)/Wvehicle control × 100, [formula] where W denotes tumor weight.

With `COc1cccc2c1C(=O)c1c(O)c3c(c(O)c1C2=O)C[C@@](O)(C(=O)CO)C[C@@H]3O[C@H]1C[C@H](N)[C@@H](O)[C@H](C)O1` [F, epirubicin] the “Animal body weight, D26” value (one animal per group, D26, 26 days after tumor cell injection, in g (unit assumed)) was 26.81, the “Change in body weight (g)” value (one animal per group, before administration to D26) was “+6.39 g” and the “Animal body weight, Before administration” value (one animal per group, tail-vein injection once weekly, total 2 administrations, before administration) was 20.42. For the same compound, the “Individual animal body weight” value (DAY 12, in g (unit assumed)) was 20.42, the “Individual animal body weight” value (DAY 14, in g (unit assumed)) was 22.15 and the “Individual animal body weight” value (DAY 17, in g (unit assumed)) was 23.68. For the same compound, the “Individual animal body weight” value (DAY 19, in g (unit assumed)) was 25.41, the “Individual animal body weight” value (DAY 21, in g (unit assumed)) was 26.51 and the “Individual animal body weight” value (DAY 24, in g (unit assumed)) was 29.19. For the same compound, the “Individual animal body weight” value (DAY 26, in g (unit assumed)) was 26.81.

From patent EP4745242A1, “NUCLEIC ACID VECTOR, NUCLEIC ACID DRUG, PREPARATION METHOD THEREFOR, AND USE THEREOF” (Bai Yao Zhi Da (Beijing) Nanobio Technology Co., Ltd., priority 2023, dated 2025)
